{
  "source": "patent US9187462B2",
  "about": "“Substituted quinazolines as serine/threonine kinase inhibitors” (Array BioPharma Inc., priority 2011, dated 2015)",
  "data": [
    {"target": "human ERK-2 (Mitogen Activated Kinase 1) (Homo sapiens (Human), UniProt P28482)", "sequence (P28482 8-360)": "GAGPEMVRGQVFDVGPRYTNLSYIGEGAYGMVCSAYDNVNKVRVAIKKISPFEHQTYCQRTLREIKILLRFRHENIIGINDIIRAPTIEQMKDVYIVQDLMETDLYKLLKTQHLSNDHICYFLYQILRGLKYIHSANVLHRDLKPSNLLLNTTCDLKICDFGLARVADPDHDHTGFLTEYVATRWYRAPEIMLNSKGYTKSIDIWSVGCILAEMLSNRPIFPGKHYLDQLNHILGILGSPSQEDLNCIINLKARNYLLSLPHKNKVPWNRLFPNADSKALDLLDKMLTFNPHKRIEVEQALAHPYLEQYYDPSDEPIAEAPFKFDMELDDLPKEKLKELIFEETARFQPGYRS", "assay": "ERK-2 Enzymatic Assay", "type": "biochemical", "settings": "5 nM ERK-2 enzyme, 25 μM ATP, Omnia peptide S/T17; single assay or mean of multiple assays; read-out: IC50 (ERK-2 Enzymatic Assay), TABLE I", "experimental": "(§1) Compounds were tested in an enzymatic assay using human ERK-2 (Mitogen Activated Kinase 1), recombinantly expressed as an N-terminal 6-His fusion protein in E. coli and corresponding to aa 8-360. The substrate used was the fluorescent Omnia peptide S/T17 (Invitrogen of Carlsbad, Calif.; Cat. KNZ1171C). Test compounds were diluted in DMSO in 3-fold serial dilutions at 100× final concentrations. […] The assay was run at ambient temperature in a white 384-well polypropylene plate (Nunc, Inc of Naperville, Ill.; Cat. 267462) collecting data every 50 seconds for approximately 30 minutes on an Envision plate reader (PerkinElmer, Inc. of Waltham, Mass.); Excitation 340 nm/Emission 495 nm. The data collected from each well was fit to a straight line and the resulting rates were used to calculate percent of control. Percent of control was plotted against compound concentration and IC50 values were determined using a four-parameter fit. Representative data is in TABLE I and TABLE II. The reported IC50 may be from a single assay or the mean of multiple assays.", "units": {"IC50": "nM"}, "values": [
      {"smiles": "CC(C)Nc1ncc2ccc(C(=O)N[C@H](c3ccc(C(F)(F)F)c(F)c3)[C@@H]3CCCN3)cc2n1", "note": "(stereo in doubt) [I-5, 2-isopropylamino-quinazoline-7-carboxylic acid [(S)-(3-fluoro-4-trifluoromethyl-phenyl)-(R)-pyrrolidin-2-yl-methyl]-amide]", "IC50": 2.3},
      {"smiles": "O=C(N[C@H](c1ccc(C(F)(F)F)c(F)c1)[C@@H]1CCCN1)c1ccc2cnc(NC3CCOCC3)nc2c1", "note": "(stereo in doubt) [I-7, 2-(tetrahydropyran-4-ylamino)-quinazoline-7-carboxylic acid [(S)-(3-fluoro-4-trifluoromethyl-phenyl)-(R)-pyrrolidin-2-yl-methyl]-amide]", "IC50": 1.8},
      {"smiles": "O=C(N[C@H](c1ccc(Cl)c(F)c1)[C@@H]1CCCN1)c1ccc2cnc(NC3CCOCC3)nc2c1", "note": "(stereo in doubt) [I-23, 2-(tetrahydropyran-4-ylamino)-quinazoline-7-carboxylic acid [(S)-(4-chloro-3-fluoro-phenyl)-(R)-pyrrolidin-2-yl-methyl]-amide]", "IC50": 2.3},
      {"smiles": "COc1ccc([C@@H](NC(=O)c2ccc3cnc(NC4CCOCC4)nc3c2)[C@@H]2CCCN2)cc1F", "note": "(stereo in doubt) [I-24, 2-(tetrahydropyran-4-ylamino)-quinazoline-7-carboxylic acid [(S)-(3-fluoro-4-methoxy-phenyl)-(R)-pyrrolidin-2-yl-methyl]-amide]", "IC50": 8.2},
      {"smiles": "COc1ccc([C@@H](NC(=O)c2cc(F)c3cnc(NC4CCOCC4)nc3c2)[C@@H]2CCCN2)cc1F", "note": "(stereo in doubt) [I-25, 5-fluoro-2-(tetrahydropyran-4-ylamino)-quinazoline-7-carboxylic acid [(S)-(3-fluoro-4-methoxy-phenyl)-(R)-pyrrolidin-2-yl-methyl]-amide]", "IC50": 9},
      {"smiles": "C[C@@H](CO)Nc1ncc2ccc(C(=O)NC(c3ccc(Cl)c(F)c3)c3ccn(C)n3)cc2n1", "note": "(stereo partly drawn) [I-6, N-((4-chloro-3-fluorophenyl)(1-methyl-1H-pyrazol-3-yl)methyl)-2-((S)-1-hydroxypropan-2-ylamino)quinazoline-7-carboxamide]", "IC50": 5},
      {"smiles": "CCn1ccc([C@@H](NC(=O)c2ccc3cnc(NC4CCOCC4)nc3c2)c2ccc(Cl)c(F)c2)n1", "note": "[I-19, 2-(tetrahydropyran-4-ylamino)-quinazoline-7-carboxylic acid [(S)-(4-chloro-3-fluoro-phenyl)-(1-ethyl-1H-pyrazol-3-yl)-methyl]-amide]", "IC50": 2.4}
    ]},
    {"target": "human ERK-2 (Mitogen Activated Kinase 1) (Homo sapiens (Human), UniProt P28482)", "assay": "ERK-2 Enzymatic Assay", "type": "biochemical", "settings": "5 nM ERK-2 enzyme, 25 μM ATP, Omnia peptide S/T17; single assay or mean of multiple assays; read-out: IC50 (ERK-2 Enzymatic Assay), TABLE II", "experimental": "as §1", "units": {"IC50": "nM"}, "values": [
      {"smiles": "COc1ccc([C@H](NC(=O)c2cc(F)c3cnc(NC(C)C(F)(F)F)nc3c2)c2cnn(C)c2)cc1F", "note": "(single isomer, unassigned) [II-1]", "IC50": 6.2},
      {"smiles": "COc1ccc([C@H](NC(=O)c2cc(F)c3cnc(NC(C)C(F)(F)F)nc3c2)c2cnn(C)c2)cc1F", "note": "(single isomer, unassigned) [II-2]", "IC50": 13.6}
    ]}
  ]
}
